Assay results from ChEMBL document CHEMBL3232922, “Discovery and SAR of 6-alkyl-2,4-diaminopyrimidines as histamine H₄ receptor antagonists” (J Med Chem, 2014).

Key:
[1] = Oral bioavailability in Sprague-Dawley rat at 50 mg/kg; assay type: ADME, organism-based; details: in vivo
[2] = AUC in Sprague-Dawley rat at 200 mg/kg, po; assay type: ADME, organism-based; set-up: dose 200 mg/kg, route oral; details: plasma
[3] = Permeability from apical to basolateral side in human Caco cells; assay type: ADME, cell-based; details: Caco-2, read-out: permeability
[4] = Cmax in rat at 10 mg/kg, po; assay type: ADME, organism-based; set-up: dose 10 mg/kg, route oral; details: in vivo
[5] = Cmax in Sprague-Dawley rat at 50 mg/kg, po; assay type: ADME, organism-based; set-up: dose 50 mg/kg, route oral; details: in vivo
[6] = biological target: T1, Cytochrome P450 1A2 (Homo sapiens, UniProt P05177); assay: Inhibition of CYP1A2 (unknown origin) at 50 to 100 uM; assay type: ADME
T1 sequence (P05177 whole entry): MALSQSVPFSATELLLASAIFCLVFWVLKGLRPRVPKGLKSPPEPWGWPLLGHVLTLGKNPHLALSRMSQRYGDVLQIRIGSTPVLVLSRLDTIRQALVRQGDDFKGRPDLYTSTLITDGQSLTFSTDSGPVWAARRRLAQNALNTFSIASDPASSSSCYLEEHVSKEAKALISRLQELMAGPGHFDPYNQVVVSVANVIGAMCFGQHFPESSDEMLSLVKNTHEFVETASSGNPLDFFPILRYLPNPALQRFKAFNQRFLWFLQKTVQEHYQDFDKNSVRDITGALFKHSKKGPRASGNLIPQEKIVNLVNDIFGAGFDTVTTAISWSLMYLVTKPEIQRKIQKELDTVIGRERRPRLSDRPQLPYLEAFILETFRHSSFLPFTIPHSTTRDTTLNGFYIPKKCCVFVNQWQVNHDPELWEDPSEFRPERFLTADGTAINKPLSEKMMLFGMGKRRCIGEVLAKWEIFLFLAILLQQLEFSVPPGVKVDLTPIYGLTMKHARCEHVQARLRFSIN

[7] = Volume of distribution at steady state in beagle dog at 2 mg/kg, iv; assay type: ADME, organism-based, Canis lupus familiaris; set-up: dose 2 mg/kg, route intravenous; details: in vivo, read-out: Vdss
[8] = biological target: T2, Histamine H4 receptor (Homo sapiens, UniProt Q9H3N8); assay: Displacement of [3H]histamine from human recombinant histamine H4 receptor expressed in SK-N-MC cells after 45 mins by competition binding analysis; assay type: cell-based
[9] = Ratio of drug level in kidney to plasma in mouse at 5 mg/kg, po administered as single dose […] by LC-MS/MS analysis; assay type: ADME, organism-based; set-up: dose 5 mg/kg, route oral
[10] = biological target: T2, Histamine H4 receptor; assay: Agonist activity at human H4 receptor

T2 sequence (Q9H3N8 whole entry): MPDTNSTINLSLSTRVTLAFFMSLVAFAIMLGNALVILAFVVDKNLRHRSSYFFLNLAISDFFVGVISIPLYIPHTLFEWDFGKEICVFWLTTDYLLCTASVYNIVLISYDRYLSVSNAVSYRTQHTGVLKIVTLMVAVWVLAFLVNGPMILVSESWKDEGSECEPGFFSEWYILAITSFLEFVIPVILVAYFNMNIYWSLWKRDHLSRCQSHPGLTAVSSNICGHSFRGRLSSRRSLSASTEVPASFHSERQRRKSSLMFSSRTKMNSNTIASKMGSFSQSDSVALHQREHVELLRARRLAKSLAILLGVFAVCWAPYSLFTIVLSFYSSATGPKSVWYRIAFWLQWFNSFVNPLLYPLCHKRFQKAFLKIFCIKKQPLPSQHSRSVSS

With `CC(C)c1cc(N2CC[C@@H](N)C2)nc(N)n1` [JNJ-39758979] the bioavailability [1] was 38%, the AUC [2] was 71.2 µM·h and the Papp A→B [3] was 23 ×10⁻⁶ cm/s. For the same compound, the Cmax [4] was 300 nM, the Cmax [5] was 1250 nM and the “inhibition (INH)” value [6] was “Not Active”. It also gave a Vd [7] of 19.9 L/kg, a Ki [8] of 12.5 nM and a Kp [9] of 23.2. It also gave an EC50 [10] greater than 10000 nM.
